# According to PMC12073449, “Development of a Mechanism of Action-Reflective Cell-Based Reporter Gene Assay for Measuring Bioactivities of Therapeutic Glucagon-like Peptide-2 Analogues” (Molecules, 2025):
# Ends that are not written are not given here.
# System: HEK293-GLP-2R-Luc cells
substance,measurement,setting,value
HGEGTFSSELATILDALAARDFINWLIATKITDKKKKKK-NH2 [glepaglutide],log2 (TD/Ctrl) CYP1B1,,1.052
same,log2 (TD/Ctrl) CYP4V2,,−1.198
same,log2 (TD/Ctrl) CYP4 × 1,,−1.963
same,log2 (TD/Ctrl) TRPV1,Qvalue 0.001125,−1.038
same,log2 (TD/Ctrl) NEK8,Qvalue 0.001147,−1.057
same,log2 (TD/Ctrl) METTL25,Qvalue 0.001214,−1.045
same,log2 (TD/Ctrl) ITGA8,Qvalue 0.001396,−1.102
same,log2 (TD/Ctrl) UBOX5,Qvalue 0.00141,1.051
same,log2 (TD/Ctrl) CC2D2A,Qvalue 0.001438,−1.1174
same,log2 (TD/Ctrl) DERL3,Qvalue 0.001478,−1.237
same,log2 (TD/Ctrl) ADAM12,Qvalue 0.001549,1.112
same,log2 (TD/Ctrl) RBPMS2,Qvalue 0.001565,1.069
same,log2 (TD/Ctrl) RBM11,Qvalue 0.001608,1.143
same,log2 (TD/Ctrl) SLCO2A1,Qvalue 0.001637,1.773
same,log2 (TD/Ctrl) AMH,Qvalue 0.001638,−1.122
same,log2 (TD/Ctrl) EMP1,Qvalue 0.001666,1.518
same,log2 (TD/Ctrl) RNLS,Qvalue 0.001684,2.251
same,log2 (TD/Ctrl) AATK,Qvalue 0.001714,1.156
same,log2 (TD/Ctrl) ZSWIM4,Qvalue 0.001797,1.054
same,log2 (TD/Ctrl) NGEF,Qvalue 0.001858,1.549
same,log2 (TD/Ctrl) LOC124901228,Qvalue 0.002022,−1.299
same,log2 (TD/Ctrl) HILPDA,Qvalue 0.00213,−1.215
same,log2 (TD/Ctrl) GPRASP3,Qvalue 0.002224,−1.474
same,log2 (TD/Ctrl) SRGAP3,Qvalue 0.002313,−1.063
same,log2 (TD/Ctrl) PPEF1,Qvalue 0.002369,1.543
same,log2 (TD/Ctrl) BOK,Qvalue 0.002402,1.599
same,log2 (TD/Ctrl) PRR7,Qvalue 0.002734,1.209
same,log2 (TD/Ctrl) SAT1,Qvalue 0.002832,2.416
same,log2 (TD/Ctrl) SDHAF4,Qvalue 0.002952,1.018
same,log2 (TD/Ctrl) IL7R,Qvalue 0.003482,2.4
same,log2 (TD/Ctrl) RHOB,Qvalue 0.003482,2.852
same,log2 (TD/Ctrl) CCDC61,Qvalue 0.003634,1.663
same,log2 (TD/Ctrl) H2BC21,Qvalue 0.004109,1.259
same,log2 (TD/Ctrl) CXCL12,Qvalue 0.004272,−2.422
same,log2 (TD/Ctrl) UGT3A1,Qvalue 0.004706,3.069
same,log2 (TD/Ctrl) MYPN,Qvalue 0.005296,2.401
same,log2 (TD/Ctrl) PTPRN,Qvalue 0.005327,3.046
same,log2 (TD/Ctrl) RHBDF1,Qvalue 0.005404,1.083
same,log2 (TD/Ctrl) KLF2,Qvalue 0.005739,1.928
same,log2 (TD/Ctrl) SH2D2A,Qvalue 0.005953,2.922
same,log2 (TD/Ctrl) SYT4,Qvalue 0.005991,2.338
same,log2 (TD/Ctrl) NTRK2,Qvalue 0.006147,1.454
same,log2 (TD/Ctrl) PLPP2,Qvalue 0.006233,1.309
same,log2 (TD/Ctrl) ATG16L2,Qvalue 0.006489,1.087
same,log2 (TD/Ctrl) ASGR1,Qvalue 0.00679,2.135
same,log2 (TD/Ctrl) DHRS9,Qvalue 0.007207,2.367
same,log2 (TD/Ctrl) SH2D5,Qvalue 0.00738,1.053
same,log2 (TD/Ctrl) SLC30A3,Qvalue 0.007467,1.182
same,log2 (TD/Ctrl) SHANK2,Qvalue 0.007984,2.035
same,log2 (TD/Ctrl) NAA80,Qvalue 0.008009,1.249
same,log2 (TD/Ctrl) CLIP2,Qvalue 0.008212,1.052
same,log2 (TD/Ctrl) LOC128125822,Qvalue 0.008527,2.711
same,log2 (TD/Ctrl) RND1,Qvalue 0.008622,1.057
same,log2 (TD/Ctrl) SH3RF2,Qvalue 0.008648,1.516
same,log2 (TD/Ctrl) DUSP2,Qvalue 0.008669,3.424
same,log2 (TD/Ctrl) MAGED4,Qvalue 0.009809,−1.159
same,log2 (TD/Ctrl) MAP6,Qvalue 0.009857,1.691
same,log2 (TD/Ctrl) TMEM225B,Qvalue 0.010366,1.448
same,log2 (TD/Ctrl) CHRD,Qvalue 0.010428,1.261
same,log2 (TD/Ctrl) FNTB,Qvalue 0.011191,−1.039
same,log2 (TD/Ctrl) MARVELD3,Qvalue 0.011267,1.031
same,log2 (TD/Ctrl) FSTL4,Qvalue 0.011445,1.312
same,log2 (TD/Ctrl) POC1B-GALNT4,Qvalue 0.011547,−1.319
same,log2 (TD/Ctrl) GDPGP1,Qvalue 0.011565,−1.43
same,log2 (TD/Ctrl) CREG2,Qvalue 0.012071,1.949
same,log2 (TD/Ctrl) CERS4,Qvalue 0.01208,1.131
same,log2 (TD/Ctrl) ANKRD1,Qvalue 0.012462,2.953
same,log2 (TD/Ctrl) PLEKHN1,Qvalue 0.012462,2.21
same,log2 (TD/Ctrl) KRT75,Qvalue 0.012583,2.099
same,log2 (TD/Ctrl) ALDH1L2,Qvalue 0.012744,1.303
same,log2 (TD/Ctrl) GUCA1B,Qvalue 0.013456,1.026
same,log2 (TD/Ctrl) SH2D3A,Qvalue 0.013825,1.146
same,log2 (TD/Ctrl) CATSPERE,Qvalue 0.013837,−2.496
same,log2 (TD/Ctrl) TFEB,Qvalue 0.014032,1.085
same,log2 (TD/Ctrl) SCN2A,Qvalue 0.014161,−2.494
same,log2 (TD/Ctrl) FAM47E-STBD1,Qvalue 0.014365,6.132
same,log2 (TD/Ctrl) IL11,Qvalue 0.014439,2.543
same,log2 (TD/Ctrl) ICOSLG,Qvalue 0.015122,1.337
same,log2 (TD/Ctrl) HHIP,Qvalue 0.016047,1.114
same,log2 (TD/Ctrl) COL15A1,Qvalue 0.016322,2.733
same,log2 (TD/Ctrl) ADAMTSL1,Qvalue 0.016921,1.769
same,log2 (TD/Ctrl) AJM1,Qvalue 0.017304,−1.327
same,log2 (TD/Ctrl) RASGRP3,Qvalue 0.017723,1.426
same,log2 (TD/Ctrl) ZNF233,Qvalue 0.018109,−1.102
same,log2 (TD/Ctrl) ADM2,Qvalue 0.018318,1.127
same,log2 (TD/Ctrl) FMNL1,Qvalue 0.018333,1.446
same,log2 (TD/Ctrl) PHF24,Qvalue 0.018911,1.839
same,log2 (TD/Ctrl) MAP2,Qvalue 0.019619,−1.138
same,log2 (TD/Ctrl) BCL3,Qvalue 0.020272,1.728
same,log2 (TD/Ctrl) EXO5,Qvalue 0.020878,−1.023
same,log2 (TD/Ctrl) POLN,Qvalue 0.020952,−1.364
same,log2 (TD/Ctrl) C20orf204,Qvalue 0.021231,−1.777
same,log2 (TD/Ctrl) TMEM54,Qvalue 0.021231,1.072
same,log2 (TD/Ctrl) RYR1,Qvalue 0.021465,1.055
same,log2 (TD/Ctrl) PHKG1,Qvalue 0.021994,1.955
same,log2 (TD/Ctrl) KLF6,Qvalue 0.022289,1.402
same,log2 (TD/Ctrl) LRRTM4,Qvalue 0.022315,−1.285
same,log2 (TD/Ctrl) PHOSPHO2,Qvalue 0.023229,−1.059
same,log2 (TD/Ctrl) MICOS10-NBL1,Qvalue 0.023249,1.952
same,log2 (TD/Ctrl) PDE3A,Qvalue 0.023634,1.882
same,log2 (TD/Ctrl) LARGE2,Qvalue 0.023651,1.17
same,log2 (TD/Ctrl) HES7,Qvalue 0.024442,1.525
same,log2 (TD/Ctrl) VSTM2B,Qvalue 0.024619,1.668
same,log2 (TD/Ctrl) INSM1,Qvalue 0.02493,1.259
same,log2 (TD/Ctrl) SIK1,Qvalue 0.025061,1.255
same,log2 (TD/Ctrl) IQANK1,Qvalue 0.02555,−1.07
same,log2 (TD/Ctrl) TRABD2A,Qvalue 0.026368,1.121
same,log2 (TD/Ctrl) RAB20,Qvalue 0.026593,1.265
same,log2 (TD/Ctrl) ADAM8,Qvalue 0.026923,−1.632
same,log2 (TD/Ctrl) EGR2,Qvalue 0.027245,1.924
same,log2 (TD/Ctrl) ACTRT3,Qvalue 0.027976,−1.89
same,log2 (TD/Ctrl) CILP2,Qvalue 0.028089,1.014
same,log2 (TD/Ctrl) KCNJ4,Qvalue 0.028153,1.521
same,log2 (TD/Ctrl) NGFR,Qvalue 0.0305,1.083
same,log2 (TD/Ctrl) GPR146,Qvalue 0.031918,−1.284
same,log2 (TD/Ctrl) SLC2A9,Qvalue 0.032594,−1.825
same,log2 (TD/Ctrl) FIBIN,Qvalue 0.032833,−1.931
same,log2 (TD/Ctrl) INSC,Qvalue 0.033388,1.775
same,log2 (TD/Ctrl) TRPM4,Qvalue 0.034028,1.164
same,log2 (TD/Ctrl) TOR4A,Qvalue 0.034573,−1.123
same,log2 (TD/Ctrl) ANXA3,Qvalue 0.034821,1.046
same,log2 (TD/Ctrl) F2RL2,Qvalue 0.035979,2.195
same,log2 (TD/Ctrl) GFRA2,Qvalue 0.036382,1.989
same,log2 (TD/Ctrl) CHD5,Qvalue 0.036855,1.476
same,log2 (TD/Ctrl) IER5L,Qvalue 0.037055,1.227
same,log2 (TD/Ctrl) CORO1A,Qvalue 0.03809,1.157
same,log2 (TD/Ctrl) DMRT1,Qvalue 0.038243,2.578
same,log2 (TD/Ctrl) TMEM200A,Qvalue 0.038553,2.008
same,log2 (TD/Ctrl) BIRC3,Qvalue 0.038759,1.213
same,log2 (TD/Ctrl) GJB7,Qvalue 0.040011,−1.706
same,log2 (TD/Ctrl) PABIR3,Qvalue 0.044085,1.001
same,log2 (TD/Ctrl) DAB1,Qvalue 0.044461,1.527
same,log2 (TD/Ctrl) CLIC5,Qvalue 0.046355,1.134
same,log2 (TD/Ctrl) LOC124904248,Qvalue 0.046402,−1.239
same,log2 (TD/Ctrl) FOXD4,Qvalue 0.046871,−1.765
same,log2 (TD/Ctrl) SNAI2,Qvalue 0.046941,1.1
same,log2 (TD/Ctrl) ANKRD20A1,Qvalue 0.047154,1.015
same,log2 (TD/Ctrl) MVP,Qvalue 0.048413,1.066
same,log2 (TD/Ctrl) SHISA8,Qvalue 0.048554,1.031
same,log2 (TD/Ctrl) TBC1D3C,Qvalue 0.04891,−2.321
same,log2 (TD/Ctrl) CDH1,Qvalue 0.049404,1.135
same,log2 (TD/Ctrl) ZNF296,Qvalue 0.049596,1.005
same,log2 (TD/Ctrl) IRX4,Qvalue 1.00 × 10^−4,3.763
same,log2 (TD/Ctrl) LYPD6,Qvalue 1.04 × 10^−4,−1.124
same,log2 (TD/Ctrl) TGFB1,Qvalue 1.04 × 10^−9,1.683
same,log2 (TD/Ctrl) SMOX,Qvalue 1.04 × 10^−10,1.479
same,log2 (TD/Ctrl) GPR3,Qvalue 1.05 × 10^−12,3.013
same,log2 (TD/Ctrl) PMAIP1,Qvalue 1.07 × 10^−13,1.02
same,log2 (TD/Ctrl) CCN1,Qvalue 1.09 × 10^−13,1.83
same,log2 (TD/Ctrl) BAX,Qvalue 1.10 × 10^−10,−1.136
same,log2 (TD/Ctrl) ACTBL2,Qvalue 1.10 × 10^−21,2.68
same,log2 (TD/Ctrl) CREM,Qvalue 1.18 × 10^−18,1.319
same,log2 (TD/Ctrl) TFPI,Qvalue 1.19 × 10^−6,1.103
same,log2 (TD/Ctrl) CFAP44,Qvalue 1.21 × 10^−4,−1.2179
same,log2 (TD/Ctrl) SPRY4,Qvalue 1.22 × 10^−4,1.583
same,log2 (TD/Ctrl) GCNT1,Qvalue 1.22 × 10^−6,−1.113
same,log2 (TD/Ctrl) DUSP1,Qvalue 1.23 × 10^−13,2.837
same,log2 (TD/Ctrl) MAFK,Qvalue 1.26 × 10^−13,1.561
same,log2 (TD/Ctrl) GEM,Qvalue 1.30 × 10^−33,2.896
same,log2 (TD/Ctrl) EML2,Qvalue 1.31 × 10^−5,1.098
same,log2 (TD/Ctrl) ECEL1,Qvalue 1.32 × 10^−6,2.018
same,log2 (TD/Ctrl) NFATC1,Qvalue 1.32 × 10^−9,1.146
same,log2 (TD/Ctrl) LBHD1,Qvalue 1.34 × 10^−6,−1.453
same,log2 (TD/Ctrl) GNG4,Qvalue 1.34 × 10^−10,1.107
same,log2 (TD/Ctrl) GFPT2,Qvalue 1.35 × 10^−4,1.08
same,log2 (TD/Ctrl) HOXB6,Qvalue 1.35 × 10^−4,−1.274
same,log2 (TD/Ctrl) VGF,Qvalue 1.36 × 10^−15,2.99
same,log2 (TD/Ctrl) USP4,Qvalue 1.38 × 10^−4,1.002
same,log2 (TD/Ctrl) CASD1,Qvalue 1.39 × 10^−4,−1.007
same,log2 (TD/Ctrl) SGK1,Qvalue 1.39 × 10^−7,1.322
same,log2 (TD/Ctrl) PHLDA1,Qvalue 1.40 × 10^−4,1.224
same,log2 (TD/Ctrl) NDRG1,Qvalue 1.40 × 10^−27,1.674
same,log2 (TD/Ctrl) EMILIN2,Qvalue 1.41 × 10^−13,1.304
same,log2 (TD/Ctrl) TPM4,Qvalue 1.41 × 10^−16,1.086
same,log2 (TD/Ctrl) FOSB,Qvalue 1.44 × 10^−4,2.796
same,log2 (TD/Ctrl) IER3,Qvalue 1.44 × 10^−12,1.677
same,log2 (TD/Ctrl) AHR,Qvalue 1.47 × 10^−8,1.016
same,log2 (TD/Ctrl) SPINT1,Qvalue 1.47 × 10^−8,1.307
same,log2 (TD/Ctrl) PTP4A1,Qvalue 1.47 × 10^−41,1.5
same,log2 (TD/Ctrl) FOSL2,Qvalue 1.49 × 10^−13,1.385
same,log2 (TD/Ctrl) GADD45A,Qvalue 1.52 × 10^−19,1.573
same,log2 (TD/Ctrl) FOS,Qvalue 1.54 × 10^−5,3.22
same,log2 (TD/Ctrl) SMAD6,Qvalue 1.54 × 10^−5,−1.023
same,log2 (TD/Ctrl) FADS2,Qvalue 1.54 × 10^−10,−1.136
same,log2 (TD/Ctrl) DNAJB5,Qvalue 1.56 × 10^−4,1.316
